Test results taken from PubChem BioAssay (NCI).
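Five concentrations, 48 hours, 96-well plates. GI50 = concentration required for 50% inhibition of growth. TGI: total growth inhibition.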

Columns and labels:
Test in all cases: DTP human tumour cell line panel, 48 h
[1] = tested on: COLO 205 colon
[2] = tested on: SK-MEL-28 melanoma
[3] = tested on: HL-60(TB) leukemia
[4] = tested on: NCI-H460 lung
[5] = tested on: SNB-75 CNS
[6] = tested on: UACC-62 melanoma
[7] = tested on: HOP-62 NSCLC
[8] = tested on: MDA-MB-231 breast
[9] = tested on: UO-31 renal
[10] = tested on: HCC-2998 colon

Compound | GI50 [1] [µM] | TGI [1] [µM] | GI50 [2] [µM] | TGI [2] [µM] | GI50 [3] [µM] | TGI [3] [µM] | GI50 [4] [µM] | TGI [4] [µM] | GI50 [5] [µM] | TGI [5] [µM] | GI50 [6] [µM] | TGI [6] [µM] | GI50 [7] [µM] | TGI [7] [µM] | GI50 [8] [µM] | TGI [8] [µM] | GI50 [9] [µM] | TGI [9] [µM] | GI50 [10] [µM] | TGI [10] [µM]
C=C1C(=O)O[C@H]2[C@H]1CC/C(COC(=O)NCCCCCCCCNC(=O)OC/C1=C/CC[C@@]3(C)O[C@H]3[C@H]3OC(=O)C(=C)[C@@H]3CC1)=C\CC[C@@]1(C)O[C@@H]21 | 0.3 | 0.756 | 0.206 | 0.511 | 0.268 | 0.869 | 1.75 | 3.98 | 1.25 | 3.5 | 0.197 | 0.488 | 1.53 | 3.49 | 0.2 | 0.458 | 0.88 | 2.17 | 1.2 | 2.52
COc1ccc(N(C)c2nc(Cl)nc3cnn(C)c23)cc1 | < 0.01 | 0.058 | 12.8 | > 100 | < 0.01 | < 0.0222 | < 0.01 | > 100 | < 0.01 | > 100 | < 0.01 | > 100 | < 0.0118 | > 100 | 0.0262 | > 100 | < 0.0383 | > 95.5 | 0.0285 | > 59.7
CN(C)CCOC(=O)Nc1nc2ccc(Sc3ccccc3)cc2[nH]1 | 2.16 | 5.19 | 9.19 | 24.3 | 3.24 | 8.59 | 3.69 | 13.7 | 1.98 | 7.66 | 3.74 | 16.7 | 3.94 | 15.5 | 3.25 | 12.3 | 3.11 | 15.4 | 3.31 | 14.1
COc1cc2c(cc1C)NC(=O)/C2=C\c1c[nH]c2ccccc12 | 16.6 | > 100 | 21.7 | 69.5 | 15.9 | 45.5 | 4.93 | 41.9 | 4.12 | 22.9 | 13.3 | 28.4 | 17.9 | 56.8 | 4.3 | 21.5 | 10.4 | 62.9 | 21.7 | 71.1
CCn1ccc(NS(=O)(=O)c2ccc(N)cc2)nc1=O | > 100 | > 100 | > 100 | > 100 | > 100 | > 100 | > 100 | > 100 | > 100 | > 100 | > 100 | > 100 | > 100 | > 100 | > 100 | > 100 | > 100 | > 100 | > 100 | > 100
Nc1ccc(Sc2c3ccccc3nc3ccccc23)cc1 | – | 37.6 | – | 24.8 | – | 10.7 | – | 49.5 | – | 36.2 | – | 30.5 | – | 56.9 | – | 28.1 | – | 34.3 | – | 59.5
